Among the data in US8163771B2, “11 β-HSD1 modulators” (Exelixis, Inc., priority 2008, dated 2012) are IC50 values, retold here.

Molecules are shown by their SMILES. Some results are limits rather than exact numbers.

T1 sequence (P28845 whole entry): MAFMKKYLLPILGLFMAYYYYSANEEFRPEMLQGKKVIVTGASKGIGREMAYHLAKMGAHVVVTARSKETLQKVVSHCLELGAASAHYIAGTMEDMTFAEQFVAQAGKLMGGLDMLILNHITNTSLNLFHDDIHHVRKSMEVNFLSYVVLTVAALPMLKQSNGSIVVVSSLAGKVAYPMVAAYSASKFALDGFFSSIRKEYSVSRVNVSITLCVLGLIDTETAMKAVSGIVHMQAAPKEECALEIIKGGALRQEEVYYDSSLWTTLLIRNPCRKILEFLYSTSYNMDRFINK

The assay concerns the target T1, recombinant human 11 β-HSD1 (Homo sapiens, UniProt P28845).
T1 construct: made in house; host or cells: E. coli
The experiment in a line: 11 β-HSD1 SPA Assay (Scintillation Proximity Assay). Type of assay: biochemical. Here is the method:
(§1) Inhibition of 11 βHSD1 by test compounds was assessed in vitro by a Scintillation Proximity Assay (SPA). The assay was carried out in a 384-well assay plate in a total well volume of 26 μl and contained a mixture of tritiated cortisone substrate (40 nM), NADPH cofactor (1 mM), inhibitor in serial dilutions ([…] to 10 μM), and purified E. coli-expressed recombinant human 11 βHSD1 (30-100 nM) in assay buffer (50 mM HEPES, 100 mM KCl, 5 mM NaCl, and 2 mM MgCl2, pH7.4). Following mixing, the plate was incubated for 2 hours at room temperature. Reactions were stopped by addition of 30 μl of protein A YSi SPA beads (10 mg/ml) that had been pre-incubated with glycyrrhetinic acid (1 mM) and a monoclonal cortisol antibody (3 μg/ml). The plate was then incubated overnight at room temperature prior to reading on a Microbeta counter. Percent inhibition of each compound was calculated based on the background and the maximal signals. Wells that contained substrate without compound or enzyme were used as the background signal, while the wells that contained substrate and enzyme without any compound were used as the maximal signal. The calculation of the IC50 values for the inhibitors was performed by Activity Base.
as §1, with “β-HSD1” for “βHSD1”
With `CC(C)(Sc1ccc(Cl)cc1Cl)C(=O)N[C@H]1C[C@H]2CC[C@@H](C1)N2c1ccc(C(N)=O)cn1` [Example 286, 6-[3-endo-({2-[(2,4-dichlorophenyl)thio]-2-methylpropanoyl}amino)-8-azabicyclo[3.2.1]oct-8-yl]pyridine-3-carboxamide], the IC50 is less than 0.2 µM.
With `CC(C)(Oc1cc(F)c(Cl)cc1Cl)C(=O)N[C@H]1C[C@H]2CC[C@@H](C1)N2c1ccc(C(=O)NCC(F)F)cn1` [Example 436, 6-(3-endo-{[2-(2,4-dichloro-5-fluorophenoxy)-2-methylpropanoyl]amino}-8-azabicyclo[3.2.1]oct-8-yl)-N-(2,2-difluoroethyl)pyridine-3-carboxamide], the IC50 is less than 0.2 µM.
With `CC(C)(Oc1cc(Cl)c(Cl)cc1Cl)C(=O)N[C@H]1C[C@H]2CC[C@@H](C1)N2c1ccc(S(C)(=O)=O)cn1` [Example 197, 2-methyl-N-{8-[5-(methylsulfonyl)pyridin-2-yl]-8-azabicyclo[3.2.1]oct-3-endo-yl}-2-[(2,4,5-trichlorophenyl)oxy]propanamide], the IC50 was less than 0.2 µM.
With `CC(C)(Oc1cc(F)c(Cl)cc1Cl)C(=O)N[C@H]1C[C@H]2CC[C@@H](C1)N2c1ccc(S(N)(=O)=O)cn1` [Example 261, N-{8-[5-(aminosulfonyl)pyridin-2-yl]-8-azabicyclo[3.2.1]oct-3-endo-yl}-2-[(2,4-dichloro-5-fluorophenyl)oxy]-2-methylpropanamide] the figure was less than 0.2 µM.
Turning to `COCCOc1cc(Cl)ccc1OC(C)(C)C(=O)N[C@H]1C[C@H]2CC[C@@H](C1)N2c1ccc(C(=O)NCC(F)(F)F)cn1` [Example 352, 6-[3-endo-({2-[4-chloro-2-(2-methoxyethoxy)phenoxy]-2-methylpropanoyl}amino)-8-azabicyclo[3.2.1]oct-8-yl]-N-(2,2,2-trifluoroethyl)pyridine-3-carboxamide], the IC50 was less than 0.2 µM.
With `CC(C)(Oc1ncc(Cl)cc1Cl)C(=O)N[C@H]1C[C@H]2CC[C@@H](C1)N2c1ccc(S(C)(=O)=O)cn1` [Example 193, 2-[(3,5-dichloropyridin-2-yl)oxy]-2-methyl-N-{8-[5-(methylsulfonyl)pyridin-2-yl]-8-azabicyclo[3.2.1]oct-3-endo-yl}propanamide] the figure was less than 0.2 µM.
In the case of `COc1cc(F)ccc1OC(C)(C)C(=O)N[C@H]1C[C@H]2CC[C@@H](C1)N2c1ccc(S(C)(=O)=O)cc1` [Example 222, 2-{[4-fluoro-2-(methyloxy)phenyl]oxy}-2-methyl-N-{8-[4-(methylsulfonyl)phenyl]-8-azabicyclo[3.2.1]oct-3-endo-yl}propanamide], the IC50 was less than 0.2 µM.
With `CC(C)(Oc1ccc(Cl)cc1Cl)C(=O)N[C@H]1C[C@H]2CC[C@@H](C1)N2c1ccc(NC(=O)C2CC2)cn1` [Example 92, N-{6-[3-endo-({2-[(2,4-dichlorophenyl)oxy]-2-methylpropanoyl}amino)-8-azabicyclo[3.2.1]oct-8-yl]pyridin-3-yl}cyclopropanecarboxamide] the figure was less than 0.2 µM.
With `CC(C)(Oc1ccccc1S(C)(=O)=O)C(=O)N[C@H]1C[C@H]2CC[C@@H](C1)N2c1ccc(C(=O)NCC(F)(F)F)cn1` [Example 300, 6-{3-endo-[(2-methyl-2-{[2-(methylsulfonyl)phenyl]oxy}-propanoyl)amino]-8-azabicyclo[3.2.1]oct-8-yl}-N-(2,2,2-trifluoroethyl)pyridine-3-carboxamide] the figure was less than 2 µM.
Regarding `CC(C)(Oc1ccc(F)cc1Cl)C(=O)N[C@H]1C[C@H]2CC[C@@H](C1)N2c1ccc(S(C)(=O)=O)cc1` [Example 173, 2-[(2-chloro-4-fluorophenyl)oxy]-2-methyl-N-{8-[4-(methylsulfonyl)phenyl]-8-azabicyclo[3.2.1]oct-3-endo-yl}propanamide], the IC50 is less than 0.2 µM.
With `CC(C)(Oc1cc(C(C)(C)C(=O)O)c(Cl)cc1Cl)C(=O)N[C@H]1C[C@H]2CC[C@@H](C1)N2c1ccc(C(=O)NCC(F)(F)F)cn1` [Example 445, 2-[2,4-dichloro-5-({2-methyl-1-oxo-1-[(8-{5-[(2,2,2-trifluoroethyl)carbamoyl]pyridin-2-yl}-8-azabicyclo[3.2.1]oct-3-endo-yl)amino]propan-2-yl}oxy)phenyl]-2-methylpropanoic acid] the figure was less than 0.2 µM; with `CC(C)(Oc1ccc(F)c(Cl)c1Cl)C(=O)N[C@H]1C[C@H]2CC[C@@H](C1)N2c1ccc(S(C)(=O)=O)cc1` [Example 235, 2-[(2,3-dichloro-4-fluorophenyl)oxy]-2-methyl-N-{8-[4-(methylsulfonyl)phenyl]-8-azabicyclo[3.2.1]oct-3-endo-yl}propanamide], less than 0.2 µM.
For the compound `CC(C)(Oc1ccnc2ccccc12)C(=O)N[C@H]1C[C@H]2CC[C@@H](C1)N2c1ccc(C(N)=O)cn1` [Example 318, 6-(3-endo-{[2-methyl-2-(quinolin-4-yloxy)propanoyl]amino}-8-azabicyclo[3.2.1]oct-8-yl)pyridine-3-carboxamide], the IC50 was less than 0.2 µM.
Consider `CC(C)(C(=O)N[C@H]1C[C@H]2CC[C@@H](C1)N2c1ccc(C(N)=O)cn1)c1ccc(F)c(F)c1` [Example 165, 6-(3-endo-{[2-(3,4-difluorophenyl)-2-methylpropanoyl]amino}-8-azabicyclo[3.2.1]oct-8-yl)pyridine-3-carboxamide], for which the IC50 is less than 0.2 µM.
With `CC(C)(Oc1ncc(Cl)cc1Cl)C(=O)N[C@H]1C[C@H]2CC[C@@H](C1)N2c1ccc(S(N)(=O)=O)cn1` [Example 191, N-{8-[5-(aminosulfonyl)pyridin-2-yl]-8-azabicyclo[3.2.1]oct-3-endo-yl}-2-[(3,5-dichloropyridin-2-yl)oxy]-2-methylpropanamide] the figure was less than 0.2 µM; with `CC(C)(Oc1ccc(C(F)(F)F)cn1)C(=O)N[C@H]1C[C@H]2CC[C@@H](C1)N2c1ccc(S(N)(=O)=O)cc1` [Example 192, N-{8-[4-(aminosulfonyl)phenyl]-8-azabicyclo[3.2.1]oct-3-endo-yl}-2-methyl-2-{[5-(trifluoromethyl)pyridin-2-yl]oxy}propanamide], less than 2 µM.
With `CC(C)(Oc1ccc(C(F)(F)F)cn1)C(=O)N[C@H]1C[C@H]2CC[C@@H](C1)N2c1ccc(C(=O)NCC(F)(F)F)cn1` [Example 152, 6-{3-endo-[(2-methyl-2-{[5-(trifluoromethyl)pyridin-2-yl]oxy}propanoyl)amino]-8-azabicyclo[3.2.1]oct-8-yl}-N-(2,2,2-trifluoroethyl)pyridine-3-carboxamide] the figure was less than 2 µM.
With `C[C@H](NC(=O)c1ccc(N2C3CCC2CC(NC(=O)C(C)(C)Oc2ccc(Cl)cc2)C3)nc1)C(F)(F)F` (stereo partly drawn) [Example 420, 6-(3-endo-{[2-(4-chlorophenoxy)-2-methylpropanoyl]amino}-8-azabicyclo[3.2.1]oct-8-yl)-N-[(2S)-1,1,1-trifluoropropan-2-yl]pyridine-3-carboxamide] the figure was less than 2 µM.
On to `O=C(NC1CC1)c1ccc(N2[C@@H]3CC[C@H]2C[C@@H](NC(=O)C2(c4cccc(Cl)c4)CC2)C3)nc1` [Example 16, 6-[3-endo-({[1-(3-chlorophenyl)cyclopropyl]carbonyl}amino)-8-azabicyclo[3.2.1]oct-8-yl]-N-cyclopropylpyridine-3-carboxamide], for which the IC50 was less than 0.2 µM.
In the case of `CC(C)(Oc1ccc(Cl)cc1F)C(=O)N[C@H]1C[C@H]2CC[C@@H](C1)N2c1ccc(C(=O)NC2CC2)cn1` [Example 41, 6-[3-endo-({2-[(4-chloro-2-fluorophenyl)oxy]-2-methylpropanoyl}amino)-8-azabicyclo[3.2.1]oct-8-yl]-N-cyclopropylpyridine-3-carboxamide], the IC50 was less than 0.2 µM.
The result for `CC(C)(Oc1ccc(Cl)cc1Cl)C(=O)N[C@H]1C[C@H]2CC[C@@H](C1)N2c1ccc(NC(=O)NCC(F)(F)F)cc1` [Example 135, 2-[(2,4-dichlorophenyl)oxy]-2-methyl-N-{8-[4-({[(2,2,2-trifluoroethyl)amino]carbonyl}amino)phenyl]-8-azabicyclo[3.2.1]oct-3-endo-yl}propanamide] reads less than 0.2 µM; that for `CC(=O)Nc1ccc(N2[C@@H]3CC[C@H]2C[C@@H](NC(=O)C2(c4ccc(Cl)cc4)CC2)C3)nc1` [Example 58, N-{8-[5-(acetylamino)pyridin-2-yl]-8-azabicyclo[3.2.1]oct-3-endo-yl}-1-(4-chlorophenyl)cyclopropanecarboxamide], less than 0.2 µM.
For `CC(C)(Oc1ncc(Cl)cc1F)C(=O)N[C@H]1C[C@H]2CC[C@@H](C1)N2c1ccc(C(=O)NCC(F)F)cn1` [Example 409, 6-(3-endo-(2-(5-chloro-3-fluoropyridin-2-yloxy)-2-methylpropanamido)-8-azabicyclo[3.2.1]octan-8-yl)-N-(2,2-difluoroethyl)nicotinamide], the IC50 is less than 0.2 µM.
